Patent US10376520B2, “Methods for the treatment of cardiovascular disorders” (Galapagos NV, priority 2015, dated 2019)

System: RA patients
Experiment: LDL determination, Study 2 (RA patients, monotherapy)
Assay type: in vivo, human
From the text: Randomized, double-blind, placebo-controlled, multicenter, phase IIb dose finding study of Compound 1 (dosed as a [Compound 1:HCl:3H2O]) administered for 24 weeks as monotherapy to subjects with moderately to severely active rheumatoid arthritis who have an inadequate response to methotrexate alone
Double-blind, placebo-controlled, monotherapy study in subjects with moderately to severely active RA who have an inadequate response to methotrexate (MTX) (oral or parenteral).
280 subjects randomized to one of 3 doses of Compound 1 (dosed as a [Compound 1:HCl:3H2O]) or to placebo, given once daily (q.d.).
Twelve weeks of treatment with Compound 1 (dosed as a [Compound 1:HCl:3H2O]) at 50 mg, 100 mg, or 200 mg q.d.; or placebo. At Week 12, all subjects on placebo and the subjects on the 50 mg dose who have not achieved 20% improvement in swollen joint count (SJC66) and tender joint count (TJC68) will be assigned to 100 mg q.d. in a blinded fashion and will continue treatment until Week 24. Subjects in the other groups will maintain their randomized treatment until Week 24.
The determination of [LDL]-cholesterol is made using an automated method taking advantage of the selective micellary solubilization of [LDL]-cholesterol by a nonionic detergent and the interaction of a sugar compound and lipoproteins (VLDL and chylomicrons).
When a detergent is included in the enzymatic method for cholesterol determination (cholesterol esterase, cholesterol oxidase coupling reaction), the relative reactivities of cholesterol in the lipoprotein fractions increase in this order: [HDL]<chylomicrons <VLDL <[LDL]. In the presence of Mg^2+, a sugar compound markedly reduces the enzymatic reaction of the cholesterol measurement in VLDL and chylomicrons. The combination of a sugar compound with detergent enables the selective determination of [LDL]-cholesterol in serum. (Friedewald et al., 1972; Rifai et al., 1992)
Homogeneous enzymatic colorimetric assay.
In the presence of peroxidase, the hydrogen peroxide generated reacts with 4-aminoantipyrine and Sodium N-(2-hydroxy-3-sulfopropyl)-3,5-dimethoxyaniline (HSDA) to form a purple-blue dye.
The color intensity of this dye is directly proportional to the cholesterol concentration and is measured photometrically.
Human serum and plasma samples [LDL] determination was done on a Roche/Hitachi Cobas c 701/702 system which automatically calculate the analyte concentration of each sample. Samples containing precipitates are centrifuged before performing the assay.

[1] = Study 2 12 weeks results, 50 mg q.d., week 12
[2] = Study 2 12 weeks results, 100 mg q.d., week 1
[3] = Study 2 12 weeks results, 100 mg q.d., week 2
[4] = Study 2 12 weeks results, 100 mg q.d., week 4
[5] = Study 2 12 weeks results, 100 mg q.d., week 8
[6] = Study 2 12 weeks results, 100 mg q.d., week 12
[7] = Study 2 12 weeks results, 200 mg q.d., week 1
[8] = Study 2 12 weeks results, 200 mg q.d., week 2
[9] = Study 2 12 weeks results, 200 mg q.d., week 4
[10] = Study 2 12 weeks results, 200 mg q.d., week 8
[11] = Study 2 12 weeks results, 200 mg q.d., week 12
[12] = Study 2 24 weeks results, 50 mg q.d. non responders switching to 100 mg q.d. at week 12, week 1
[13] = Study 2 24 weeks results, 50 mg q.d. non responders switching to 100 mg q.d. at week 12, week 2
[14] = Study 2 24 weeks results, 50 mg q.d. non responders switching to 100 mg q.d. at week 12, week 4
[15] = Study 2 24 weeks results, 50 mg q.d. non responders switching to 100 mg q.d. at week 12, week 8
[16] = Study 2 24 weeks results, 50 mg q.d. non responders switching to 100 mg q.d. at week 12, week 12
[17] = Study 2 24 weeks results, 50 mg q.d. non responders switching to 100 mg q.d. at week 12, week 16
[18] = Study 2 24 weeks results, 50 mg q.d. non responders switching to 100 mg q.d. at week 12, week 20
[19] = Study 2 24 weeks results, 50 mg q.d. non responders switching to 100 mg q.d. at week 12, week 24
[20] = Study 2 24 weeks results, 50 mg q.d. responders, week 1
[21] = Study 2 24 weeks results, 50 mg q.d. responders, week 2
[22] = Study 2 24 weeks results, 50 mg q.d. responders, week 4
[23] = Study 2 24 weeks results, 50 mg q.d. responders, week 8
[24] = Study 2 24 weeks results, 50 mg q.d. responders, week 12
[25] = Study 2 24 weeks results, 50 mg q.d. responders, week 16
[26] = Study 2 24 weeks results, 50 mg q.d. responders, week 20
[27] = Study 2 24 weeks results, 50 mg q.d. responders, week 24
[28] = Study 2 24 weeks results, 100 mg q.d., week 1
[29] = Study 2 24 weeks results, 100 mg q.d., week 2
[30] = Study 2 24 weeks results, 100 mg q.d., week 4
[31] = Study 2 24 weeks results, 100 mg q.d., week 8
[32] = Study 2 24 weeks results, 100 mg q.d., week 12
[33] = Study 2 24 weeks results, 100 mg q.d., week 16
[34] = Study 2 24 weeks results, 100 mg q.d., week 20
[35] = Study 2 24 weeks results, 100 mg q.d., week 24
[36] = Study 2 24 weeks results, 200 mg q.d., week 1
[37] = Study 2 24 weeks results, 200 mg q.d., week 2
[38] = Study 2 24 weeks results, 200 mg q.d., week 4
[39] = Study 2 24 weeks results, 200 mg q.d., week 8
[40] = Study 2 24 weeks results, 200 mg q.d., week 12
[41] = Study 2 24 weeks results, 200 mg q.d., week 16
[42] = Study 2 24 weeks results, 200 mg q.d., week 20
[43] = Study 2 24 weeks results, 200 mg q.d., week 24
[44] = Study 2 24 weeks results, placebo switching to 100 mg q.d. at week 12, week 16
[45] = Study 2 24 weeks results, placebo switching to 100 mg q.d. at week 12, week 20
[46] = Study 2 24 weeks results, placebo switching to 100 mg q.d. at week 12, week 24
[47] = placebo switching to 100 mg q.d. at week 12, week 20
[48] = placebo switching to 100 mg q.d. at week 12, week 24

Structure (SMILES): O=C(Nc1nc2cccc(-c3ccc(CN4CCS(=O)(=O)CC4)cc3)n2n1)C1CC1 [Compound 1, cyclopropanecarboxylic acid {5-[4-(1,1-dioxo-thiomorpholin-4-ylmethyl)-phenyl]-[1,2,4]triazolo[1,5-a]pyridin-2yl}-amide]
- [LDL] Mean CFB [1]: 0.090 mmol/L
- [LDL] Median CFB [1]: 0.040 mmol/L
- [LDL] Mean CFB [2]: 0.116 mmol/L
- [LDL] Median CFB [2]: 0.070 mmol/L
- [LDL] Mean CFB [3]: 0.105 mmol/L
- [LDL] Median CFB [3]: -0.050 mmol/L
- [LDL] Mean CFB [4]: 0.195 mmol/L
- [LDL] Median CFB [4]: 0.140 mmol/L
- [LDL] Mean CFB [5]: 0.162 mmol/L
- [LDL] Median CFB [5]: 0.140 mmol/L
- [LDL] Mean CFB [6]: 0.278 mmol/L
- [LDL] Median CFB [6]: 0.180 mmol/L
- [LDL] Mean CFB [7]: 0.209 mmol/L
- [LDL] Median CFB [7]: 0.180 mmol/L
- [LDL] Mean CFB [8]: 0.192 mmol/L
- [LDL] Median CFB [8]: 0.130 mmol/L
- [LDL] Mean CFB [9]: 0.216 mmol/L
- [LDL] Median CFB [9]: 0.290 mmol/L
- [LDL] Mean CFB [10]: 0.212 mmol/L
- [LDL] Median CFB [10]: 0.230 mmol/L
- [LDL] Mean CFB [11]: 0.347 mmol/L
- [LDL] Median CFB [11]: 0.315 mmol/L
- [LDL] Mean CFB [12]: 0.08 mmol/L
- [LDL] Median CFB [12]: 0.07 mmol/L
- [LDL] Mean CFB [13]: 0.00 mmol/L
- [LDL] Median CFB [13]: -0.02 mmol/L
- [LDL] Mean CFB [14]: 0.17 mmol/L
- [LDL] Median CFB [14]: 0.05 mmol/L
- [LDL] Mean CFB [15]: 0.10 mmol/L
- [LDL] Median CFB [15]: 0.10 mmol/L
- [LDL] Mean CFB [16]: 0.11 mmol/L
- [LDL] Median CFB [16]: 0.09 mmol/L
- [LDL] Mean CFB [17]: 0.22 mmol/L
- [LDL] Median CFB [17]: 0.20 mmol/L
- [LDL] Mean CFB [18]: 0.03 mmol/L
- [LDL] Median CFB [18]: -0.04 mmol/L
- [LDL] Mean CFB [19]: 0.14 mmol/L
- [LDL] Median CFB [19]: 0.15 mmol/L
- [LDL] Mean CFB [20]: -0.01 mmol/L
- [LDL] Median CFB [20]: -0.01 mmol/L
- [LDL] Mean CFB [21]: -0.07 mmol/L
- [LDL] Median CFB [21]: -0.06 mmol/L
- [LDL] Mean CFB [22]: 0.01 mmol/L
- [LDL] Median CFB [22]: -0.05 mmol/L
- [LDL] Mean CFB [23]: 0.16 mmol/L
- [LDL] Median CFB [23]: 0.14 mmol/L
- [LDL] Mean CFB [24]: 0.09 mmol/L
- [LDL] Median CFB [24]: 0.03 mmol/L
- [LDL] Mean CFB [25]: 0.18 mmol/L
- [LDL] Median CFB [25]: 0.16 mmol/L
- [LDL] Mean CFB [26]: 0.00 mmol/L
- [LDL] Median CFB [26]: 0.12 mmol/L
- [LDL] Mean CFB [27]: 0.00 mmol/L
- [LDL] Median CFB [27]: -0.01 mmol/L
- [LDL] Mean CFB [28]: 0.12 mmol/L
- [LDL] Median CFB [28]: 0.07 mmol/L
- [LDL] Mean CFB [29]: 0.10 mmol/L
- [LDL] Median CFB [29]: -0.05 mmol/L
- [LDL] Mean CFB [30]: 0.19 mmol/L
- [LDL] Median CFB [30]: 0.14 mmol/L
- [LDL] Mean CFB [31]: 0.16 mmol/L
- [LDL] Median CFB [31]: 0.14 mmol/L
- [LDL] Mean CFB [32]: 0.28 mmol/L
- [LDL] Median CFB [32]: 0.18 mmol/L
- [LDL] Mean CFB [33]: 0.28 mmol/L
- [LDL] Median CFB [33]: 0.20 mmol/L
- [LDL] Mean CFB [34]: 0.25 mmol/L
- [LDL] Median CFB [34]: 0.23 mmol/L
- [LDL] Mean CFB [35]: 0.31 mmol/L
- [LDL] Median CFB [35]: 0.31 mmol/L
- [LDL] Mean CFB [36]: 0.21 mmol/L
- [LDL] Median CFB [36]: 0.18 mmol/L
- [LDL] Mean CFB [37]: 0.19 mmol/L
- [LDL] Median CFB [37]: 0.13 mmol/L
- [LDL] Mean CFB [38]: 0.22 mmol/L
- [LDL] Median CFB [38]: 0.29 mmol/L
- [LDL] Mean CFB [39]: 0.21 mmol/L
- [LDL] Median CFB [39]: 0.23 mmol/L
- [LDL] Mean CFB [40]: 0.35 mmol/L
- [LDL] Median CFB [40]: 0.32 mmol/L
- [LDL] Mean CFB [41]: 0.30 mmol/L
- [LDL] Median CFB [41]: 0.23 mmol/L
- [LDL] Mean CFB [42]: 0.29 mmol/L
- [LDL] Median CFB [42]: 0.25 mmol/L
- [LDL] Mean CFB [43]: 0.38 mmol/L
- [LDL] Median CFB [43]: 0.34 mmol/L
- [LDL] Mean CFB [44]: 0.07 mmol/L
- [LDL] Median CFB [44]: -0.05 mmol/L
- [LDL] Mean CFB [45]: 0.16 mmol/L
- [LDL] Median CFB [45]: 0.03 mmol/L
- [LDL] Mean CFB [46]: 0.10 mmol/L
- [LDL] Median CFB [46]: 0.12 mmol/L
- [LDL] Mean percentage CFB - 24 weeks results (placebo switching to 100 mg q.d. at week 12, week 16): 2.82%
- [LDL] Mean percentage CFB - 24 weeks results [47]: 5.77%
- [LDL] Median percentage CFB - 24 weeks results [47]: 1.00%
- [LDL] Mean percentage CFB - 24 weeks results [48]: 4.50%
- [LDL] Median percentage CFB - 24 weeks results [48]: 4.13%
